Measurements taken from patent publication US6958343B2, “Thiazolopyrimidines and their use as modulators of chemokine receptor activity” (AstraZeneca, AB, priority 2000, dated 2005).

A melting point of 158 to 160 °C was found for `Cc1nc(CSc2nc(NC(CO)CO)c3sc(N)nc3n2)cs1` [Example 10, 2-[[2-Amino-5-[[(2-methyl-4-thiazolyl)methyl]thio]thiazolo[4,5-d]pyrimidin-7-yl]amino]-1,3-propanediol] in this work. A melting point of 250 to 252 °C was found for `Cc1nc(CSc2nc(NC(C)(C)CO)c3sc(N)nc3n2)cs1` [Example 11, 2-[[2-Amino-5-[[(2-methyl-4-thiazolyl)methyl]thio]thiazolo[4,5-d]pyrimidin-7-yl]amino]-2-methyl-1-propanol] in this work. A melting point of 183 to 185 °C was found for `C[C@H](CO)Nc1nc(SCc2ccno2)nc2nc(N)sc12` [Example 9, (2R)-2-[[2-Amino-5-[(5-isoxazolylmethyl)thio]thiazolo[4,5-d]pyrimidin-7-yl]amino]-1-propanol] in this work.
